Source: patent publication US20240109925A1, “Enhanced Anti-Proliferative and Antitumor Immune Effects of Mitochondria-Targeted Hydroxyurea” (The Medical College of Wisconsin, Inc., priority 2021, published 2024)
Where two headings read alike, the source gives them in different places.

Legend:
mitochondrial complex I = mitochondrial complex I (Homo sapiens, UniProt O75251+O75306+P03886); assay: Complex I-dependent oxygen consumption (OCR), Seahorse XF-96, HCT116 cells; format: cell-based
Protocol: (§1) FIG. 2. Effects of HU and Mito-HUs on the oxygen consumption by mitochondrial complexes I and III (A) Dose-dependent effects of HU, Mito10-HU, Mito12-HU, Mito14-HU, Mito16-HU, and Mito20-HU on complex I- and complex III-dependent oxygen consumption were measured in HCT116 cells. HCT116 cells were treated with HU or Mito-HUs as indicated for 24 hr. Mitochondrial complex I activity (left) and complex III activity (right) were monitored by a Seahorse XF-96 analyzer. Either rotenone (complex I inhibitor) or antimycin A (complex III inhibitor) was acutely added and OCR assayed immediately. (B) The mitochondrial complex I (left) and III (right) dependent oxygen consumption (calculated as rotenone or antimycin A inhibitable OCR) are plotted against concentration of HU and Mito-HUs. Dashed lines represent the fitting curves used for determination of the IC50 values. Data shown are the means G SD.
(§2) Mitochondrial oxygen consumption was measured using the Seahorse XF-96 Extracellular Flux Analyzer (Agilent, North Billerica, MA) (Cheng et al., 2013, 2016; Boyle et al., 2018; Weinberg and Chandel, 2015). After cells were treated with HU or Mito-HUs for 24 hr, the OCR-based assessment of mitochondrial complex activities was carried out on acutely permeabilized cells in the presence of different mitochondrial substrates, i.e., pyruvate/malate for complex I and duroquinol for complex III (Cheng et al., 2016, 2019; Salabei et al., 2014; Wheaton et al., 2014). Rotenone, malonate, and antimycin A (Sigma-Aldrich, St. Louis, MO) were used as specific inhibitors of mitochondrial complexes I, II, and III, respectively. Briefly, cells that were intact after treatments were immediately permeabilized using the Seahorse XF Plasma Membrane Permeabilizer (Agilent). The mitochondrial complex I-induced OCR was assayed in mannitol and sucrose buffer (Salabei et al., 2014) containing 10 mM pyruvate and 1.5 mM malate (substrates for complex I) and 10 mM malonate (which inhibits complex II activities). The mitochondrial complex III-driven OCR was assayed in a mannitol and sucrose buffer containing 0.5 mM duroquinol (substrate for complex III) as well as […] and 10 mM malonate (which inhibit both complex I and II activities). The IC50 values were determined as previously reported (Cheng et al., 2019).

[1] = biological target: T1, mitochondrial complex III (Homo sapiens, UniProt P00156+P47985); assay: Complex III-dependent oxygen consumption (OCR), Seahorse XF-96, HCT116 cells; format: cell-based
T1 construct: other: mean ± SD; HCT116, 24 hr treatment; Complex III activity (OCR, % of control); other: 0.1 μM, 24 hr, HCT116; n = 4; other: 0.5 μM, 24 hr, HCT116; other: 0.75 μM, 24 hr, HCT116; other: 1 μM, 24 hr, HCT116; Compl
Protocol: as §1, §2

M-MDSC = assay: In vitro differentiation of MDSCs from bone marrow cells, flow cytometry; format: cell-based, mouse; conditions: for IC50: Mus musculus, Bone marrow cell
Source text: (§3) FIG. 5. In vitro differentiation of MDSCs and suppressive neutrophils in the presence of different concentrations of Mito14-HU and Mito-HUs with varying hydrophobicities (A) Scheme of differentiation of MDSCs. (B) Representative flow cytometry contour plots of in vitro differentiation of MDSCs under varying concentrations of Mito14-HU using FlowJo Software (FlowJo Software, 2019). (C) Summary data depicting distribution of MDSCs after three days treatment with Mito14-HU generated from panel (B). (D and E) (D) Dose-dependent effects of Mito-HUs with different side chain lengths on M-MDSC and (E) suppressive neutrophils. Dashed lines represent the fitting curves used for determination of the IC50 values. Data shown are the means & SD.
(§4) MDSCs were generated from bone marrow cells isolated from C57b1/6 mice and cultured at a density of 1 3 10^6 cells/ml in RPMI with 10% fetal bovine serum and 25 ng/ml recombinant mouse GM-CSF (Shenandoah Biotechnology, Inc.) and 25 ng/ml recombinant mouse IL-6 (Shenandoah Biotechnology, Inc.) for three days. Then, cells were re-cultured in fresh media with inhibitors for an additional three days. Cells were scraped and examined by flow cytometry using the following markers: FITC-anti Ly6C (Biolegend, San Diego, CA), PE-Cy7 anti F4/80 (Biolegend), APC-Cy7 anti Ly6G (Biolegend), and Pacific Blue anti-CD11b (Biolegend). A gating strategy similar to that employed for the T cells was used in all MDSC differentiation assays, which were tested only on live cells after treatments. Flow cytometry data were acquired using a BD Celesta flow cytometer (BD Biosciences), and data were analyzed using FlowJo software (Treestar, Inc.).

suppressive neutrophils = assay: as above; format: cell-based, mouse; conditions: for IC50: Mus musculus, Neutrophil, 72 h, read-out: IC50 Suppressive Neutrophils (FIG. 6); for effect on suppressive neutrophils: three days
Source text: as §3, §4

[2] = system: mitochondrial complex III; assay: Complex III-dependent oxygen consumption (OCR), Seahorse XF-96, HCT116 cells; format: cell-based, human; conditions: 24 hr, HCT116, n = 4
Protocol: as §1, §2

[3] = mean ± SD; HCT116, 24 hr treatment; read-out: IC50 Complex I (FIG. 2)
[4] = mean ± SD; HCT116, 24 hr treatment; read-out: IC50 Complex III (FIG. 2)
[5] = 72 h, read-out: IC50 M-MDSC (FIG. 6)
[6] = read-out: IC50 frequency of M-MDSCs

NC(=O)NO [HU, Hydroxyurea]
effect on complex I-induced oxygen consumption (mitochondrial complex I; HCT116, 24 hr): no apparent effects | remaining activity at 10 µM (mitochondrial complex I; HCT-116; 10 μM, 24 hr, HCT116; n = 4; read-out: Complex I activity (OCR, % of control)): 84.7% | remaining activity at 30 µM (mitochondrial complex I; HCT-116; 30 μM, 24 hr, HCT116; n = 4; read-out: Complex I activity (OCR, % of control)): 77% | remaining activity at 100 µM (mitochondrial complex I; HCT-116; 100 μM, 24 hr, HCT116; n = 4; read-out: Complex I activity (OCR, % of control)): 87.9% | remaining activity at 150 µM (mitochondrial complex I; HCT-116; 150 μM, 24 hr, HCT116; n = 4; read-out: Complex I activity (OCR, % of control)): 86.1% | remaining activity at 200 µM (mitochondrial complex I; HCT-116; 200 μM, 24 hr, HCT116; n = 4; read-out: Complex I activity (OCR, % of control)): 86.5% | remaining activity at 250 µM (mitochondrial complex I; HCT-116; 250 μM, 24 hr, HCT116; n = 4; read-out: Complex I activity (OCR, % of control)): 91.3% | remaining activity at 300 µM (mitochondrial complex I; HCT-116; 300 μM, 24 hr, HCT116; n = 4; read-out: Complex I activity (OCR, % of control)): 85.7% | remaining activity at 400 µM (mitochondrial complex I; HCT-116; 400 μM, 24 hr, HCT116; n = 4; read-out: Complex I activity (OCR, % of control)): 70.5% | remaining activity at 500 µM (mitochondrial complex I; HCT-116; 500 μM, 24 hr, HCT116; n = 4; read-out: Complex I activity (OCR, % of control)): 82.1% | remaining activity at 1000 µM (mitochondrial complex I; HCT-116; 1000 μM, 24 hr, HCT116; n = 4; read-out: Complex I activity (OCR, % of control)): 80.2% | remaining activity at 3000 µM (mitochondrial complex I; HCT-116; 3000 μM, 24 hr, HCT116; n = 4; read-out: Complex I activity (OCR, % of control)): 83.1% | IC50 (mitochondrial complex I; read-out: IC50 Complex I (FIG. 2); mean ± SD; HCT116, 24 hr treatment): > 3000 µM | effect on complex III-induced oxygen consumption ([1]; HCT116, 24 hr): no apparent effects | remaining activity at 10 µM ([1]; HCT-116; 10 μM, 24 hr, HCT116; n = 4; read-out: Complex III activity (OCR, % of control)): 94.1% | remaining activity at 30 µM ([1]; HCT-116; 30 μM, 24 hr, HCT116; n = 4; read-out: Complex III activity (OCR, % of control)): 81.2% | remaining activity at 100 µM ([1]; HCT-116; 100 μM, 24 hr, HCT116; n = 4; read-out: Complex III activity (OCR, % of control)): 94.6% | remaining activity at 150 µM ([1]; HCT-116; 150 μM, 24 hr, HCT116; n = 4; read-out: Complex III activity (OCR, % of control)): 92.2% | remaining activity at 200 µM ([1]; HCT-116; 200 μM, 24 hr, HCT116; n = 4; read-out: Complex III activity (OCR, % of control)): 82.7% | remaining activity at 250 µM ([1]; HCT-116; 250 μM, 24 hr, HCT116; n = 4; read-out: Complex III activity (OCR, % of control)): 89.1% | remaining activity at 300 µM ([1]; HCT-116; 300 μM, 24 hr, HCT116; n = 4; read-out: Complex III activity (OCR, % of control)): 88.7% | remaining activity at 400 µM ([1]; HCT-116; 400 μM, 24 hr, HCT116; n = 4; read-out: Complex III activity (OCR, % of control)): 86.8% | remaining activity at 500 µM ([1]; HCT-116; 500 μM, 24 hr, HCT116; n = 4; read-out: Complex III activity (OCR, % of control)): 88.9% | remaining activity at 1000 µM ([1]; HCT-116; 1000 μM, 24 hr, HCT116; n = 4; read-out: Complex III activity (OCR, % of control)): 93.1% | remaining activity at 3000 µM ([1]; HCT-116; 3000 μM, 24 hr, HCT116; n = 4; read-out: Complex III activity (OCR, % of control)): 94.4% | IC50 ([1]; read-out: IC50 Complex III (FIG. 2); mean ± SD; HCT116, 24 hr treatment): > 3000 µM | IC50 (M-MDSC; 72 h, mean ± SD, three days treatment, read-out: IC50 M-MDSC (FIG. 6)): 84 ± 2.8 µM | IC50 (suppressive neutrophils; mean ± SD, three days treatment): 18 ± 1.9 µM

NC(=O)NOCCCCCCCCCC[P+](c1ccccc1)(c1ccccc1)c1ccccc1.O=C([O-])C(F)(F)F [Mito10-HU, 10-[(carbamoylamino)oxy]-decyltriphenylphosphonium trifluoroacetate]
effect on complex I-induced oxygen consumption (mitochondrial complex I; HCT116, 24 hr): potently inhibited | IC50 (mitochondrial complex I; [3]): 8.9 ± 1.22 µM | effect on complex III-induced oxygen consumption ([1]; HCT116, 24 hr): potently inhibited | IC50 [1, 4]: 21 ± 0.72 µM | IC50 (M-MDSC; [5]): 9.6 ± 0.39 µM | IC50 (M-MDSC; [6]): 9.6 µM | IC50 (suppressive neutrophils): > 20 µM

NC(=O)NOCCCCCCCCCCCC[P+](c1ccccc1)(c1ccccc1)c1ccccc1.O=C([O-])C(F)(F)F [Mito12-HU, 12-[(carbamoylamino)oxy]-dodecyltriphenylphosphonium trifluoroacetate]
effect on complex I-induced oxygen consumption (mitochondrial complex I; HCT116, 24 hr): potently inhibited | IC50 (mitochondrial complex I; [3]): 1.6 ± 0.16 µM | effect on complex III-induced oxygen consumption ([1]; HCT116, 24 hr): potently inhibited | IC50 [1, 4]: 3.1 ± 0.18 µM | Complex III activity (OCR, % of control) ([2]; 1.5 μM): 74.02 % of control | Complex III activity (OCR, % of control) ([2]; 2 μM): 55.15 % of control | Complex III activity (OCR, % of control) ([2]; 2.5 μM): 51.26 % of control | Complex III activity (OCR, % of control) ([2]; 4 μM): 35.02 % of control | Complex III activity (OCR, % of control) ([2]; 7.5 μM): 24.56 % of control | IC50 (M-MDSC; [5]): 2.6 ± 0.11 µM | IC50 (M-MDSC; [6]): 2.6 µM | IC50 (suppressive neutrophils): > 4 µM

NC(=O)NOCCCCCCCCCCCCCC[P+](c1ccccc1)(c1ccccc1)c1ccccc1.O=C([O-])C(F)(F)F [Mito14-HU, 14-[(carbamoylamino)oxy]-tetradecyltriphenylphosphonium trifluoroacetate]
effect on complex I-induced oxygen consumption (mitochondrial complex I; HCT116, 24 hr): potently inhibited | IC50 (mitochondrial complex I; [3]): 1 ± 0.12 µM | effect on complex III-induced oxygen consumption ([1]; HCT116, 24 hr): potently inhibited | IC50 [1, 4]: 1.7 ± 0.69 µM | IC50 (M-MDSC; [5]): 0.89 ± 0.1 µM | IC50 (M-MDSC; [6]): 0.89 µM | effect on M-MDSC (M-MDSC; three days): dose-dependently inhibited | IC50 (suppressive neutrophils): 0.94 ± 0.99 µM | effect on suppressive neutrophils (suppressive neutrophils): dose-dependently inhibited

NC(=O)NOCCCCCCCCCCCCCCCC[P+](c1ccccc1)(c1ccccc1)c1ccccc1.O=C([O-])C(F)(F)F [Mito16-HU, 16-[(carbamoylamino)oxy]-hexadecyltriphenylphosphonium trifluoroacetate]
effect on complex I-induced oxygen consumption (mitochondrial complex I; HCT116, 24 hr): potently inhibited | IC50 (mitochondrial complex I; [3]): 0.8 ± 0.05 µM | effect on complex III-induced oxygen consumption ([1]; HCT116, 24 hr): potently inhibited | IC50 [1, 4]: 2.6 ± 0.39 µM | Complex III activity (OCR, % of control) ([2]; 0.4 μM): 81.38 % of control | Complex III activity (OCR, % of control) ([2]; 0.5 μM): 79.37 % of control | Complex III activity (OCR, % of control) ([2]; 0.6 μM): 80.12 % of control | Complex III activity (OCR, % of control) ([2]; 0.8 μM): 68.47 % of control | IC50 (M-MDSC; [5]): 0.44 ± 0.11 µM | IC50 (M-MDSC; [6]): 0.44 µM | IC50 (suppressive neutrophils): 0.56 ± 0.12 µM | effect on suppressive neutrophils (suppressive neutrophils): greater inhibitory effects
